PubChem BioAssay (NCI)
“And” between values parts separate entries of the source, which are not always exact repeats. Equal values may be shown once.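 96-well plates; 48 h exposure; 5 concentrations. Endpoints by linear interpolation between flanking doses. Not reached: highest tested concentration assigned. The concentration for 50% growth inhibition is given as GI50. TGI: total growth inhibition.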

How the values were obtained:
Test in all cases: growth of human tumour cells (NCI), 48 h
[1] = tested on: HCC-2998 colon
[2] = tested on: 786-0 renal
[3] = tested on: A549 NSCLC
[4] = tested on: MALME-3M melanoma
[5] = tested on: SF-295 CNS
[6] = tested on: MDA-MB-435
[7] = tested on: SR leukemia
[8] = tested on: MDA-MB-231 breast
[9] = tested on: RXF 393 renal
[10] = tested on: CAKI-1 renal

Structure (SMILES) | GI50 [1] [µM] | TGI [1] | GI50 [2] | TGI [2] [µM] | GI50 [3] | TGI [3] | GI50 [4] | TGI [4] [µM] | GI50 [5] | TGI [5] | GI50 [6] [µM] | TGI [6] | GI50 [7] | TGI [7] [µM] | GI50 [8] [µM] | TGI [8] [µM] | GI50 [9] | TGI [9] | GI50 [10] [µM] | TGI [10]
O=C1CSC(=S)N1Cc1cccnc1 | 19.8 | 36.9 µM | 3.67 µM | 11.2 | 23.9 µM | 58.9 µM | 6.71 µM | 25.6 | 37.7 µM | > 100 µM | 3.53 | 17.1 µM | 3.56 µM | > 100 | 4.47 | 17.2 | 6.11 µM | 24.2 µM | 12.4 | 33.4 µM
COc1cc(/C=C/C(=O)C(C(=O)/C=C/c2ccc(OC(=O)CCNc3nnc(C)s3)c(OC)c2)C(=O)CCNc2nnc(C)s2)ccc1OC(=O)CCNc1nnc(C)s1 | 1.77 | 3.2 µM | 2.58 µM | 9.51 | 2.7 µM | 7.87 µM | 2.72 µM | 6.51 | 6.8 µM | 20.2 µM | 2.06 | 6.98 µM | 1.18 µM | 3.31 | 2.23 | 7.4 | 1.3 µM | 3.22 µM | 2.86 | > 34.2 µM
Cc1[nH]n(-c2ccc(S(=O)(=O)O)cc2)c(=O)c1N=Nc1ccccc1 |  | > 100 µM |  | > 100 |  | > 100 µM |  | > 100 |  | > 100 µM |  | > 100 µM |  | > 100 |  | > 100 |  | > 100 µM |  | > 100 µM
O=C1Nc2ccccc2/C1=C/c1cn(C(=O)c2c(Cl)cccc2Cl)c2ccccc12 | 6.03 | 19.6 µM | 3.28 µM | 12.7 | 3.23 µM | 17.6 µM | 2.61 µM | 14.9 | 2.24 µM | 9.3 µM | 2.24 | 7.1 µM | 2.25 µM | 8.13 | 3.09 | 16.8 | 4.14 µM | 16.6 µM | 1.89 | 5.77 µM
CNc1cccnc1/C=N/NC(N)=S |  | > 10 µM |  | > 10 |  | 9.91 µM |  | > 10 |  | 5.71 µM |  | > 10 µM |  | > 10 |  | > 10 |  | > 10 µM |  | > 10 µM
Nc1nc(Cl)c(N=Nc2ccc(Cl)cc2)c(NCC2(CO)CC(OCc3ccccc3)C2)n1 (stereo not given) |  | 87.3 µM and > 100 µM and 16.9 µM | 5.31 µM and 11.1 µM and 2.12 µM |  | 14.7 µM and 62.7 µM and 13.8 µM | 51.2 µM and > 100 µM and 32.1 µM | 17.9 µM and 10.1 µM | 33.3 | 22.2 µM and 45 µM and 13.4 µM | 99.5 µM and > 100 µM and 30.8 µM |  | 14.2 µM and > 100 µM and 59.2 µM | 2.95 µM and 6.33 µM and 3.1 µM |  |  |  | 5.17 µM and > 48.3 µM and 8.18 µM | 19.7 µM and > 100 µM and 25.6 µM | 0.768 | 3.68 µM and 14.2 µM and 5.52 µM
COc1ccc(Cn2cc3c(c2-c2ccc(O)cc2)CCc2cnoc2-3)cc1 | 0.602 | 12.9 µM | 0.695 µM | 19.1 | 0.477 µM | 18.4 µM |  |  | 0.225 µM | 2.49 µM | 0.0737 | 0.365 µM | 0.149 µM | 3.79 | 0.699 | 13.3 | 0.309 µM | 3.67 µM | 0.331 | 18.8 µM
CCN(CC)CCCNc1nc2ccccc2c2c(=O)c3cc(Cl)ccc3sc12 | 1.91 | 4.01 µM | 1.69 µM | 3.27 | 2.02 µM | 4.52 µM | 1.63 µM | 3.26 | 7.96 µM | 21.9 µM | 1.89 | 3.65 µM | 3.75 µM | > 100 | 1.45 | 3.27 | 2.68 µM | 10.8 µM | 4.4 | 17.1 µM
Cn1cnc([N+](=O)[O-])c1SC1=NCCS1 |  | > 100 µM |  | > 100 |  | > 100 µM |  | 70.2 |  | > 100 µM |  |  |  | > 100 |  |  |  |  |  | > 100 µM
O=C1c2cccc3cccc(c23)C(=O)N1CCCCN1CCN(CCCCOc2ccc(-c3nc4ccc(N5CCOCC5)cc4[nH]3)cc2)CC1 | > 100 | > 100 µM | > 100 µM | > 100 | > 100 µM | > 100 µM | 29.5 µM | > 100 | > 100 µM | > 100 µM | > 100 | > 100 µM | 1.68 µM | 3.9 | 9.16 | > 100 |  |  | > 100 | > 100 µM
O=C1Nc2ccccc2/C1=C/c1ccccc1 |  | 30.1 µM |  | 28.4 |  | 90.7 µM |  |  |  | 36.1 µM |  | 33.2 µM |  | 48.1 |  | 46.8 |  | 22.9 µM |  | > 100 µM
O=C1CCCC(=O)C1=C(O)CCCCCCCCCCc1ccccc1 |  | > 100 µM |  | > 100 |  | > 100 µM |  |  |  | > 100 µM |  |  |  | 71.9 |  |  |  | 92.7 µM |  | 38 µM
COc1cc(C(=O)/C=C/c2c(-c3ccc(F)cc3)nc3ncccn23)cc(OC)c1OC | 1.77 | 3.42 µM | 2.76 µM | 9.6 | 3.34 µM | > 100 µM | 2.84 µM | 58 | 2.43 µM | 6.53 µM | 2.36 | 96.6 µM | 2.28 µM | > 100 | 2.99 | 16.5 | 1.44 µM | 4.09 µM |  | 
COC(=O)c1oc2c(O)c(OC)c(Br)cc2c1C |  |  | 18.2 µM | 32.4 | 25 µM | 74.1 µM |  |  | 31 µM | 70.2 µM | 29 | 65.4 µM | 0.354 µM | 18.2 | 16.5 | 37 | 28.6 µM | 67.1 µM | 43.4 | > 100 µM
O=C1Cc2ccccc2N1c1c(Cl)cccc1Cl |  | > 100 µM |  | > 100 |  | > 100 µM |  | > 100 |  | > 100 µM |  |  |  | 90.2 |  |  |  |  |  | > 100 µM
C#C[C@@]1(O)CCCC2=CC(=O)C[C@]21C |  | > 100 µM |  | > 100 |  | > 100 µM |  | > 100 |  | > 100 µM |  |  |  | > 100 |  |  |  | > 100 µM |  | 
Cc1nc(N)sc1N=Nc1cc(Cl)c([N+](=O)[O-])cc1Cl |  |  |  | > 100 |  | 31.5 µM |  | 32.7 |  | 54.6 µM |  | 42.1 µM |  | 26.5 |  | 45.9 |  | > 100 µM |  | 68.5 µM
